The source of these data is patent publication US8629169B2, “4-substituted-3-phenylsulfanylmethyl-bicyclo[3.1.0]hexane compounds as mGluR 2/3 antagonists” (Eli Lilly and Company, priority 2010, dated 2014).

By IC50 is commonly meant the concentration needed to halve the response being measured.

In one series the test system is mice. The series can be described thus: mFST alone and in combination with SSRI. The format is in vivo, mouse. The note with it: Example 12 10 mg/kg p.o.
The target in series [1] is 5-HT2A serotonin receptor (Homo sapiens, UniProt P28223). Briefly: Off-target activity, known assay methods, 5-HT2A.
In series [2] the test system is wild type, mGlu2(−/−), mGlu3(−/−) and double knockout mice. The series can be described thus: Wakefulness in mGlu2 and/or mGlu3 receptor deletion mice. It counts as in vivo, mouse. The settings on record: 10 mg/kg, i.p. The source says:
Additionally, in three separate experiments, mice with single mGlu2(−/−), single mGlu3(−/−), or double mGlu2(−/−) mGlu3(−/−) receptor deletions are studied.

The next series has as its target hERG channel (Homo sapiens, UniProt Q12809). Briefly: Off-target activity, known assay methods, hERG. In general terms: hERG is a cardiac potassium channel; its block is linked to QT prolongation.
Another series addresses T1, human mGlu1 receptor (Homo sapiens, UniProt Q13255).
T1 construct: expressed in transfected cells; host or cells: AV12 cells co-expressing rat EAAT1
Briefly: FLIPR calcium antagonist assay for mGlu receptor selectivity, mGlu1. The note with it: inhibition of EC90 glutamate response, read-out: mGlu1 % inhib. @12.5 μM. It counts as cell-based. The source says:
(§1) The relative antagonist potencies of the compounds of the invention for the other human mGlu receptors can be assessed with either a cAMP assay or fluorometric calcium response assay (see for example Fell et al., JPET (in press)). Briefly, individual AV12 cell lines containing the rat EAAT1 glutamate transporter and stably expressing the human mGlu1, 2, 3, 4, 5, 6, & 8 receptors are used for these studies. The mGlu1 and 5 receptors are Gq-coupled, so they naturally signal through phospholipase C, producing a calcium flux response which can be used to measure receptor activation using a Fluorometric Imaging Plate Reader (FLIPR, Molecular Devices). […]
(§2) Intracellular calcium levels are monitored using FLIPR before and after the addition of test compounds and Fluo-3 AM (Invitrogen) or Calcium 4 (Molecular Devices) dye, depending on the cell line. […] The results are analyzed using GraphPad Prism v4.03 to calculate the concentrations of glutamate needed to induce the EC90 (antagonist assay) and EC10 (potentiator assay) responses.
(§3) Compounds are tested at each mGlu receptor in a two-addition FLIPR assay using a 10-point concentration response profile starting at a final concentration of 25 μM for the agonist assay and 12.5 μM for the potentiator and antagonist assays. […] Agonist effects are quantified as percent stimulation induced by compound alone relative to the maximal glutamate response. […]

Series [3] concerns the target 5-HT2B serotonin receptor (Homo sapiens, UniProt P41595). The series can be described thus: Off-target activity, known assay methods, 5-HT2B.
Another series concerns the target T2, M2 muscarinic receptor (Homo sapiens, UniProt P08172).
T2 sequence (P08172 1-466): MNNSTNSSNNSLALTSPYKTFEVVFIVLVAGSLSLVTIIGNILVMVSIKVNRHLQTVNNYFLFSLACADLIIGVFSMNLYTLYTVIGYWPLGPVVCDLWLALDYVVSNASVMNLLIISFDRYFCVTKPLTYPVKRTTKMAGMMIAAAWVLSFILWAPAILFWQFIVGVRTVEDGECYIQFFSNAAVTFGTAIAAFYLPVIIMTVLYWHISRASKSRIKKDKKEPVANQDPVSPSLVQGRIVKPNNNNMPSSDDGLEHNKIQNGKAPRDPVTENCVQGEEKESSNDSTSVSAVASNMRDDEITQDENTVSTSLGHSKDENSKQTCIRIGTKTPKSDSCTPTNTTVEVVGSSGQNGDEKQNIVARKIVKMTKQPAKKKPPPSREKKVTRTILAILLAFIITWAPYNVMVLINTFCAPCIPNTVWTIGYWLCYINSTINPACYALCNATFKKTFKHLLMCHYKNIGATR
The series can be described thus: Off-target activity, known assay methods, M2.

A further series has as its target T3, human mGlu8 receptor (Homo sapiens, UniProt O00222).
T3 construct: expressed in transfected cells; host or cells: AV12 cells co-expressing rat EAAT1 and Galpha15
The series can be described thus: FLIPR calcium antagonist assay for mGlu receptor selectivity, mGlu8. It counts as cell-based. The source says: (§4) The relative antagonist potencies of the compounds of the invention for the other human mGlu receptors can be assessed with either a cAMP assay or fluorometric calcium response assay (see for example Fell et al., JPET (in press)). Briefly, individual AV12 cell lines containing the rat EAAT1 glutamate transporter and stably expressing the human mGlu1, 2, 3, 4, 5, 6, & 8 receptors are used for these studies. The mGlu1 and 5 receptors are Gq-coupled, so they naturally signal through phospholipase C, producing a calcium flux response which can be used to measure receptor activation using a Fluorometric Imaging Plate Reader (FLIPR, Molecular Devices). The cell lines expressing the mGlu2, 3, 4, and 8 receptor are designed to express the Gα15 subunit so that these Gi-coupled receptors will generate a calcium flux response similar to the mGlu1 and 5 receptor expressing cell lines. The mGlu6 receptor is tested in a cAMP format using methods analogous to those developed for mGlu2 and mGlu3 above. These cell lines are maintained as previously described except that amounts of L-glutamine and selection agents (geneticin, hygromycin B, zeocin, and blasticidin) may vary depending on the cell line. Confluent cultures are passaged biweekly.
Intracellular calcium levels are monitored using FLIPR before and after the addition of test compounds and Fluo-3 AM (Invitrogen) or Calcium 4 (Molecular Devices) dye, depending on the cell line. Cells are plated 24 hours prior to assay in a variable concentration of glutamine and a variable density of cells per well, depending on the cell line. The medium is removed and the cells are incubated with 8 μM of dye (50 μl per well) for 90 or 120 minutes (depending on cell line) at 25° C. […] The results are analyzed using GraphPad Prism v4.03 to calculate the concentrations of glutamate needed to induce the EC90 (antagonist assay) and EC10 (potentiator assay) responses.
Compounds are tested at each mGlu receptor in a two-addition FLIPR assay using a 10-point concentration response profile starting at a final concentration of 25 μM for the agonist assay and 12.5 μM for the potentiator and antagonist assays. […] Agonist effects are quantified as percent stimulation induced by compound alone relative to the maximal glutamate response. Antagonist effects are quantified by calculating the percent inhibition of the EC90 glutamate response caused by the compound. Potentiation effects are quantified as percent increase in the presence of an EC10 response in glutamate relative to the ECmax response. All data are calculated as relative IC50 or EC50 values using a four-parameter logistic curve fitting program (ActivityBase v5.3.1.22).

The next series deals with male NIH-Swiss mice. Briefly: Forced-swim test in mice (mFST). The format is in vivo, mouse. The note with it: for ED60 (mg/kg): immobility, last 4 min of 6 min; for Maximal Decrease (1 − compound/control) * 100%: immobilization time.
Series [4] concerns mGlu2+/+ and mGlu2−/− mice. Briefly: mFST in mGlu2 knock-out mice and +/+ littermates. The settings on record: 10 mg/kg, i.p., 30 min prior.
Method: Briefly, male NIH-Swiss mice (Harlan Sprague-Dawley, Indianapolis, Ind.) weighing between 25-30 g are used. Group housed animals are removed from the vivarium to the testing area in their own cages and allowed to adapt to the new environment for at least 1 hour before testing. […] Mice are placed in a cylinder (diameter: 10 cm; height: 25 cm) filled with 6 cm of water (22-25° C.) for 6 min. The duration of immobility during the last 4 min. of the 6 min. period of the test was scored. A mouse is recorded as immobile when floating motionless or making only those movements necessary to keep its head above water.
In other experiments, mice with receptor deletions (mGlu2 knock-out mice) are studied; these mice are bred by heterozygote×heterozygote breeding and used as littermates for −/− and +/+ mouse comparisons (Taconic Farms).
For a further series, the target named is T4, human mGlu6 receptor (Homo sapiens, UniProt O15303).
T4 construct: expressed in transfected cells; host or cells: AV12 cells co-expressing rat EAAT1
Briefly: mGlu6 cAMP antagonist assay (reference agonist L-AP4). The format is cell-based. The note with it: cAMP format.
From the text: as §4, with “These cell lines are maintained as previously described except that amounts of L-glutamine and selection agents (geneticin, hygromycin B, zeocin, and blasticidin) may vary depending on the cell line. Confluent cultures are passaged biweekly.” left out
Antagonist activity in mGlu6 cells is measured using cAMP in a method analogous to that described above for mGlu2 and mGlu3 activity, except that the reference agonist was L-AP4 (Tocris). […] Relative IC50 and EC50 values are calculated from the top-bottom range of the concentration response curve using a four-parameter logistic curve fitting program (ActivityBase v5.3.1.22).

Another series addresses iGluR5 (Homo sapiens, UniProt P39086). Briefly: Off-target activity, known assay methods, iGluR5.
The target of the next series is T5, human mGlu4 receptor (Homo sapiens, UniProt Q14833).
T5 construct: expressed in transfected cells; host or cells: AV12 cells co-expressing rat EAAT1 and Galpha15
The series can be described thus: FLIPR calcium antagonist assay for mGlu receptor selectivity, mGlu4. It counts as cell-based. The note with it: inhibition of EC90 glutamate response, read-out: mGlu4 % inhib. @12.5 μM.
From the text: as §1, §2, §3

The next series addresses T6, human mGlu5 receptor (Homo sapiens, UniProt P41594).
T6 construct: expressed in transfected cells; host or cells: AV12 cells co-expressing rat EAAT1
Briefly: FLIPR calcium antagonist assay for mGlu receptor selectivity, mGlu5. It counts as cell-based. The note with it: inhibition of EC90 glutamate response, read-out: mGlu5 % inhib. @12.5 μM.
From the text: as §1, §2, §3

The target in the next series is T7, human mGlu3 receptor (Homo sapiens, UniProt Q14832).
T7 construct: expressed in transfected cells; host or cells: AV12 cells co-expressing rat EAAT1
The series can be described thus: mGlu3 receptor cAMP antagonist assay. It counts as cell-based. The settings on record: reversal of DCG IV (EC90) inhibition of forskolin-stimulated cAMP; relative IC50. On the procedure:
Antagonist activity is assayed in recombinant AV12 cells stably expressing human mGlu2 or mGlu3 receptors and the rat glutamate transporter EAAT1 (Excitatory Amino Acid Transporter 1). The cell lines are maintained by culturing in DMEM with high glucose and pyridoxine hydrochloride supplemented with 5% dialyzed fetal bovine serum (FBS), 1 mM sodium pyruvate, 1 mM HEPES and 1 mM L-glutamine; geneticin and hygromycin B are used as selection antibiotics.
Reversal of the inhibition of forskolin-stimulated cAMP production by test compounds is measured using homogeneous time resolved fluorescence technology (HTRF; Cisbio cat #62AM4PEB). The medium is removed and the cells are incubated with 100 μl cAMP stimulation buffer (STIM) for 30 minutes at 37° C. […] Cells are incubated at 37° C. for 20 minutes. To measure the cAMP levels, cAMP-d2 conjugate and anti cAMP-cryptate conjugate in lysis buffer are incubated with the treated cells at room temperature for 1 hour (mGlu2) or 1.5 hour (mGlu3). […] The raw data are converted to cAMP amount (pmole/well) using a cAMP standard curve generated for each experiment. Relative IC50 values are calculated from the top-bottom range of the concentration response curve using a four-parameter logistic curve fitting program (ActivityBase v5.3.1.22).

[5] abbreviates: citalopram experiment, citalopram 1 mg/kg i.p.
Where [6] appears, read: fluoxetine experiment, fluoxetine 10 mg/kg i.p.

T3 sequence (O00222 34-908): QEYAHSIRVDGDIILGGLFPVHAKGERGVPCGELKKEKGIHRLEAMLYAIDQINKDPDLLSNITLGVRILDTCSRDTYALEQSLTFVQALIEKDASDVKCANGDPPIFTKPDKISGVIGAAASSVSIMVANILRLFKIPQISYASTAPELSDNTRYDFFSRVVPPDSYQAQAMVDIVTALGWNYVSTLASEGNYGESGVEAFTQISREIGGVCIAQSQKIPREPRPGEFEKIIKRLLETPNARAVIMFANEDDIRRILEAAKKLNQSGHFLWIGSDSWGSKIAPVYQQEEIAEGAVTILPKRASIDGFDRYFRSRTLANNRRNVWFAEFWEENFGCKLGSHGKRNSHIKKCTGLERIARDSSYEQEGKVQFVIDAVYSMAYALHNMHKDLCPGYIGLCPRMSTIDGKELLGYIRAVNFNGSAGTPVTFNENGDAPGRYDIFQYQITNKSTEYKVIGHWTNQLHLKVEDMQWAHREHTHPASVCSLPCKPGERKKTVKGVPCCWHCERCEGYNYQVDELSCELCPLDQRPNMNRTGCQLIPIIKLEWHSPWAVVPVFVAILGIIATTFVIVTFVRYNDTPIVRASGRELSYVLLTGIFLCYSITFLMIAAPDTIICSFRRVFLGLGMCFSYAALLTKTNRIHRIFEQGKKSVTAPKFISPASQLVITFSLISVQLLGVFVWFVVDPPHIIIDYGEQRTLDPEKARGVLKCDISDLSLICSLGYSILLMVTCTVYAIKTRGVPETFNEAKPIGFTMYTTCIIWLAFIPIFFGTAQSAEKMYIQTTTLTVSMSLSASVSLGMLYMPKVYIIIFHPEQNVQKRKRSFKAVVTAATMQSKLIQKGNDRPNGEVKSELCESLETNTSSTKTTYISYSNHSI
5-HT2A serotonin receptor, sequence (P28223 whole entry): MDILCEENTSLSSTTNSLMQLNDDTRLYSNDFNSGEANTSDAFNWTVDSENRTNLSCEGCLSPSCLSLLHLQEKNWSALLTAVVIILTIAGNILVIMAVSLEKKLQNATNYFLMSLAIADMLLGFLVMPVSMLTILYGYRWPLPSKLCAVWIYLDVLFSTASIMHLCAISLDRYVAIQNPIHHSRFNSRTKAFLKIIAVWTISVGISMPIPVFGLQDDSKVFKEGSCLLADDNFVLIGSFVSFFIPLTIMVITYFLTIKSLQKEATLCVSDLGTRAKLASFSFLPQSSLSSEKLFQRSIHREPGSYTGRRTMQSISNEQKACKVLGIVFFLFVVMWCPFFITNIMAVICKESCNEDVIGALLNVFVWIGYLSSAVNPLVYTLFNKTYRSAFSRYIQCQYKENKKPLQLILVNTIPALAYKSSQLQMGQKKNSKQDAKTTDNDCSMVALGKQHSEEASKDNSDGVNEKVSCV
T4 sequence (O15303 25-877): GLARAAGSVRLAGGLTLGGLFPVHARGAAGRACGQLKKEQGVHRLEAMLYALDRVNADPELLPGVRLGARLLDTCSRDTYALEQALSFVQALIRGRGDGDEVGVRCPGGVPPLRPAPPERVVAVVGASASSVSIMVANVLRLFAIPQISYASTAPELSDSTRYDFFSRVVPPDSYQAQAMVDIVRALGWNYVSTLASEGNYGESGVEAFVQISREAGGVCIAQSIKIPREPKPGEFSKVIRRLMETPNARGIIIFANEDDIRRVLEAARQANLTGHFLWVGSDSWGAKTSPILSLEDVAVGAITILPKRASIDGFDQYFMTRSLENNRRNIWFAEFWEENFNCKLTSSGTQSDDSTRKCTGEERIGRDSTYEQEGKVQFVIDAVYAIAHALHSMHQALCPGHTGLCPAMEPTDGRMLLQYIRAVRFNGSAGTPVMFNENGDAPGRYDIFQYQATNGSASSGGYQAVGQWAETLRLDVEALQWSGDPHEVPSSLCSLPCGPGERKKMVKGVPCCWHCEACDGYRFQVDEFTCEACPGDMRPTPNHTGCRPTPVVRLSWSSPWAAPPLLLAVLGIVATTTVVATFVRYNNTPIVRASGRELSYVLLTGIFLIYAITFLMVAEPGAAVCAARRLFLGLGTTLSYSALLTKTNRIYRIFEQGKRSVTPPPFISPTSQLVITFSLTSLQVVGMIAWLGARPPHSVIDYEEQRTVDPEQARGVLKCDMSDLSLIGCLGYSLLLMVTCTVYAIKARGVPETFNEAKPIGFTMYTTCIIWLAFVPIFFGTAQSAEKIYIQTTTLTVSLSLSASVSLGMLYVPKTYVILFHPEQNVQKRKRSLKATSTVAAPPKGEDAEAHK
T7 sequence (Q14832 23-879): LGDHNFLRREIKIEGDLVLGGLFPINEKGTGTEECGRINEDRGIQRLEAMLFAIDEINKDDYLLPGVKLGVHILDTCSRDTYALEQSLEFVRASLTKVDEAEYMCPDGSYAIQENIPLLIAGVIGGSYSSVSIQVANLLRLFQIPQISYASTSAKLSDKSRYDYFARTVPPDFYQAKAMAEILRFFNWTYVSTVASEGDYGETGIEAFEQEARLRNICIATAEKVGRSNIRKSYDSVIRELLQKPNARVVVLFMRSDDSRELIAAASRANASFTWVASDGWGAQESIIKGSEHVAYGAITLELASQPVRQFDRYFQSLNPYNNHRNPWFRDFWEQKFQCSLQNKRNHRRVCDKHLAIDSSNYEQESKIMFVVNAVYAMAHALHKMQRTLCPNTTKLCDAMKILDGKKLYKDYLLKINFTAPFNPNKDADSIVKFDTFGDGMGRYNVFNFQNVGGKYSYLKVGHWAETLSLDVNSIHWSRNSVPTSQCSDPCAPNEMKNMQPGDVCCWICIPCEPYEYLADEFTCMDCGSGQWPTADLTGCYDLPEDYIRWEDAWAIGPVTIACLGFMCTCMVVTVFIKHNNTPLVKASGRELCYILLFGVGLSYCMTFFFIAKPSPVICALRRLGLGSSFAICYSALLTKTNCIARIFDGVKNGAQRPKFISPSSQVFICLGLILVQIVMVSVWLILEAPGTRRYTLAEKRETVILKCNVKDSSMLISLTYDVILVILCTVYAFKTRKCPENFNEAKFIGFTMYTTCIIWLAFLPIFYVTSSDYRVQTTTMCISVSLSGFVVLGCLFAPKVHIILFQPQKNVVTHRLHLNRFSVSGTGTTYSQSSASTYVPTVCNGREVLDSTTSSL
T6 sequence (P41594 21-1212): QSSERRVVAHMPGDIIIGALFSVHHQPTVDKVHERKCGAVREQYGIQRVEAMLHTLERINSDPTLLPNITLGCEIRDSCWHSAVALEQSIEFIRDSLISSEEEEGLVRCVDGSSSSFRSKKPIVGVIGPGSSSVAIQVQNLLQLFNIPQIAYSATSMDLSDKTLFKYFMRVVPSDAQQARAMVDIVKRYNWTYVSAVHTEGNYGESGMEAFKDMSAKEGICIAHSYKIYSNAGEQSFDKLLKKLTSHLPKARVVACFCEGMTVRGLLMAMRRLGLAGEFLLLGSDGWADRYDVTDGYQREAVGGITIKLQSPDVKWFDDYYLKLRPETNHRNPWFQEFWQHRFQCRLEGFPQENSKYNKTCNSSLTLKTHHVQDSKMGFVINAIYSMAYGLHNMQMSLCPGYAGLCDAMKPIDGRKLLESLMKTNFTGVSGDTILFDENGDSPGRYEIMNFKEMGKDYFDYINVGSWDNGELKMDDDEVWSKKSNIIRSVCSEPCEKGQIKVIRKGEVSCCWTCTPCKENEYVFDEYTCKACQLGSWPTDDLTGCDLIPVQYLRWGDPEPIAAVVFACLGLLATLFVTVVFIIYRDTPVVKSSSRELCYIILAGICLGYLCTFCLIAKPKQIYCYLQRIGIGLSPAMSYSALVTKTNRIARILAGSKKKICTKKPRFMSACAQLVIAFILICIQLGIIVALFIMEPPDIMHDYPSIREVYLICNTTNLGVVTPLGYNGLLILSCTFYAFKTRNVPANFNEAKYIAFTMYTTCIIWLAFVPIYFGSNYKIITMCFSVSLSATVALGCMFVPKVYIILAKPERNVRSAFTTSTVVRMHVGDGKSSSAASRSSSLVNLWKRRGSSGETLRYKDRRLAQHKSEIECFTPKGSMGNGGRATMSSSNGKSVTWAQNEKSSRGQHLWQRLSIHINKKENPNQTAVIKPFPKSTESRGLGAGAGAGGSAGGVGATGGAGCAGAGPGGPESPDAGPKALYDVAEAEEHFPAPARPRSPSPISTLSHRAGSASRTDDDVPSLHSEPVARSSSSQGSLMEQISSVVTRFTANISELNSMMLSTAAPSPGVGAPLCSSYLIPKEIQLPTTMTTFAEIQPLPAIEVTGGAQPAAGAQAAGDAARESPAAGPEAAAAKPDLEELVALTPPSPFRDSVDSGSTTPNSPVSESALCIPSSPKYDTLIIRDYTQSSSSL
5-HT2B serotonin receptor, sequence (P41595 whole entry): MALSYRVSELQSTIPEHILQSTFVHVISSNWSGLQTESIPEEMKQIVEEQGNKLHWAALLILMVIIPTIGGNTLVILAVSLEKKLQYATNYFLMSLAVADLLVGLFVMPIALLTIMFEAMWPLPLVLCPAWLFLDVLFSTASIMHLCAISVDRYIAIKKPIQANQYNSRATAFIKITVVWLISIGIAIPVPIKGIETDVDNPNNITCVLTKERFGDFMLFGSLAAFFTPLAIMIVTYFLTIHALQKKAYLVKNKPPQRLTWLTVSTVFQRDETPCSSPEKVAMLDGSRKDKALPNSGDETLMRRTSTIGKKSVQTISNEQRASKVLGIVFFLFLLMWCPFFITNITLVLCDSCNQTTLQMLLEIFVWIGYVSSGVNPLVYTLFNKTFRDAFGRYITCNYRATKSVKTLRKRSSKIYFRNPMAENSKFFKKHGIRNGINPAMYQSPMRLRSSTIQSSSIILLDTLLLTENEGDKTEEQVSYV

Take `CN(C)CCCC1(c2ccc(F)cc2)OCc2cc(C#N)ccc21` (stereo not shown) [Citalopram, citalopram, reference compound]: in the series with mice (setting [5]), the “Immobilization Time” value turned out to be 102 s and the “Maximal Decrease (1 − compound/control) * 100%” value worked out at 42.1%.

As to `Cl.N[C@]1(C(=O)O)[C@@H]2[C@@H](C(=O)O)[C@@H]2[C@H](O)[C@H]1CSc1ccc(F)c(F)c1` [Example 1, (1S,2R,3S,4S,5R,6R)-2-Amino-3-{[(3,4-difluorophenyl)sulfanyl]methyl}-4-hydroxybicyclo[3.1.0]hexane-2,6-dicarboxylic acid hydrochloride], the “activity at serotonin receptor 5-HT2A” value in [1] is “no appreciable activity”. Besides, the “wakefulness in double knockout mGlu2(−/−) mGlu3(−/−) mice” value in series [2] (double knockout) is recorded as “not significantly increase wakefulness”. Besides, the “wakefulness in single knockout mGlu2(−/−) mice” value in series [2] (mGlu2(−/−), though at a reduced level) is recorded as “significantly increase wakefulness”. The “wakefulness in single knockout mGlu3(−/−) mice” value in [2] (mGlu3(−/−), though at a reduced level) is recorded as “significantly increase wakefulness”. In series [2] (wild type), the “wakefulness in wild type mice” value was “significantly increase wakefulness”. Moreover, the “activity at the hERG channel” value at hERG channel is “no appreciable activity”. Further, the inhibition at 12.5 µM was 6.3% at human mGlu1 receptor; 47% on human mGlu8 receptor (12.5 μM, inhibition of EC90 glutamate response, read-out: mGlu8 % inhib. @12.5 μM); 17.9% at human mGlu4 receptor; -2% on human mGlu5 receptor. Further, the “activity at serotonin receptor 5-HT2B” value in series [3] is listed as “no appreciable activity”. Further, at M2 muscarinic receptor, the “activity at muscarinic receptor M2” value is “no appreciable activity”. Further, the IC50 was determined as 4970 nM on human mGlu8 receptor (FLIPR antagonist, in brackets under % inhib.); 1720 nM on human mGlu6 receptor; 6.2 ± 2.2 nM at human mGlu3 receptor. Further, in the series on male NIH-Swiss mice (i.p.), the “ED60 (mg/kg)” value was 8.0 (i.p.) mg/kg. In the series on male NIH-Swiss mice (i.p.), the “Maximal Decrease (1 − compound/control) * 100%” value turned out to be 36.1%. Also, in series [4], the “immobility time in mGlu2+/+ mice” value is “significantly decrease immobility time”. Also, on iGluR5, the “activity at iGluR5” value is “no appreciable activity”.

Take `CC(C)OC(=O)OCOC(=O)[C@H]1[C@@H]2[C@H](O)[C@@H](CSc3ccc(F)c(Cl)c3)[C@@](N)(C(=O)OCOC(=O)OC(C)C)[C@H]12.Cl` [Example 22, Bis({[(1-methylethoxy)carbonyl]oxy}methyl) (1S,2R,3S,4S,5R,6R)-2-amino-3-{[(3-chloro-4-fluorophenyl)sulfanyl]methyl}-4-hydroxybicyclo[3.1.0]hexane-2,6-dicarboxylate hydrochloride]: in the series on male NIH-Swiss mice (p.o.), the “ED60 (mg/kg)” value is 20.5 (p.o.) mg/kg and the “Maximal Decrease (1 − compound/control) * 100%” value came to 50.1%.

Consider `CNCCC(Oc1ccc(C(F)(F)F)cc1)c1ccccc1` (stereo not shown) [Fluoxetine, fluoxetine, reference compound], for which, in the series with mice (setting [6]), the “Immobilization Time” value is 118 s and the “Maximal Decrease (1 − compound/control) * 100%” value was 31.5%.
